Results published in US20220363671A1, “GLUE DEGRADERS AND METHODS OF USE THEREOF” (NOVARTIS AG, priority 2019, published 2022).

How the values were obtained:
Type in all cases: cell-based
GSPT1 = molecular target: T1, GSPT1 (Homo sapiens, UniProt P15170+Q96SW2); experiment: Prolabel quantification of GSPT1 protein levels in GripTite 293 MSR cell line; conditions: Pro-label assay; for DC50: GSPT1 degradation, read-out: GSPT1 EC50
T1 construct: expressed in transfected cells
Source text: (§1) Example 18: Prolabel Quantification of IKZF1, GSPT1, or SALL4 protein levels in GripTite™ 293 MSR Cell line
(§2) The Prolabel system from DiscoverX was used to develop high-throughput and quantitative assays to measure changes in IKZF1, GSPT1, and SALL4 protein levels in response to compounds. The prolabel tag is derived from the alpha fragment of beta galactosidase and has the following protein sequence: mssnslavvlgrrdwenpgvtglnrlaahppfaswrnseeartdrpsqqlrsinge (SEQ ID NO. 1). The complementary fragment of beta-galactosidase (from DiscoverX), is added to the prolabel tag to form an active beta galactosidase enzyme whose activity can be precisely measured. In this way, the levels of a fusion protein with the prolabel tag can be quantified in cell lysates.
(§3) Lentiviral vectors, based on the Invitrogen pLenti6.2/V5 DEST backbone, were constructed that placed the prolabel tag upstream of IKZF1, GSPT1, or SALL4 and expressed the fusion protein from a CMV promoter.
(§4) To ensure moderate and consistent expression of the prolabel fusion proteins across all cells in the population, stable cell lines were constructed from cells expressing a single copy of the construct. Lentivirus packaged with the constructs was made using the Virapower kit from Invitrogen. Strongly adherent 293GT cell, GripTite 293 MSR cells from Thermo Fisher Scientific (Catalog number: R79507), were infected with the virus at low multiplicity of infection and selected by 5 μg/mL blasticidin for 2 weeks.
(§5) The levels of prolabel tagged fusion proteins in compound treated cell lines were measured as follows:
(§6) Day 1, Cells were diluted to 1.0×10^6 cells/mL in normal growth medium. 17.5 μL of cells were plated in each well of a solid white 384 well plate. Plates were incubated overnight in a 37° C. tissue culture incubator.
(§7) Day 2, Serial dilutions of compounds were made in 384 well plates from 10 mM stocks. 15 μL of DMSO was added to each well of a 384 well plate. In the first column, 15 μL of stock compound was added. The solution was mixed and 15 μL was transferred to the next column. This was repeated until 20 two-fold dilutions were prepared. 2.5 μL of the diluted compounds were transferred into 60 μL of cell culture medium in another 384 well plate, and mixed well. 2.5 μL of this mixture was added to the plated cells. The final DMSO concentration was 0.5% and the highest concentration of compound was 50 μM. Plates were incubated overnight (e.g., about 14 h, 18 h, or 24 h) in a 37° C. tissue culture incubator.
(§8) Day 3, Plates were removed from the incubator and allowed to equilibrate at room temperature for 30 minutes. […] Plates were incubated at room temperature for three hours and luminescence was read using an Envision reader (Perkin Elmer) Data was analyzed and visualized using the Spotfire software package.

SALL4 = molecular target: T2, SALL4 (Homo sapiens, UniProt Q96SW2+Q9UJQ4); experiment: Prolabel quantification of SALL4 protein levels in GripTite 293 MSR cell line; conditions: Pro-label assay
T2 construct: expressed in transfected cells
Source text: as §1, §2
Lentiviral vectors, based on the Invitrogen pLenti6.2/V5 DEST backbone, were constructed that placed the prolabel tag upstream of IKZF1, GSPT1, or SALL4 and expressed the fusion protein from a CMV promoter. […]
The levels of prolabel tagged fusion proteins in compound treated cell lines were measured as follows: […]
as §8

IKZF1 = molecular target: T3, IKZF1 (Homo sapiens, UniProt Q13422+Q96SW2); experiment: Prolabel quantification of IKZF1 protein levels in GripTite 293 MSR cell line; conditions: Pro-label assay; for DC50: Ikaros degradation, read-out: IKZF1 EC50; for percent IKZF1 protein reduction at 10 µM: 24 h
T3 construct: expressed in transfected cells
Source text: as §1, §2, §3, §4, §5, §6, §7
Day 3, Plates were removed from the incubator and allowed to equilibrate at room temperature for 30 minutes. Prolabel substrate (DiscoverX PathHunter Prolabel Detection Kit, User manual: 93-0180) was added as described by the manufacturers protocols. Plates were incubated at room temperature for three hours and luminescence was read using an Envision reader (Perkin Elmer) Data was analyzed and visualized using the Spotfire software package.

T1 sequence (P15170 whole entry, species assumed): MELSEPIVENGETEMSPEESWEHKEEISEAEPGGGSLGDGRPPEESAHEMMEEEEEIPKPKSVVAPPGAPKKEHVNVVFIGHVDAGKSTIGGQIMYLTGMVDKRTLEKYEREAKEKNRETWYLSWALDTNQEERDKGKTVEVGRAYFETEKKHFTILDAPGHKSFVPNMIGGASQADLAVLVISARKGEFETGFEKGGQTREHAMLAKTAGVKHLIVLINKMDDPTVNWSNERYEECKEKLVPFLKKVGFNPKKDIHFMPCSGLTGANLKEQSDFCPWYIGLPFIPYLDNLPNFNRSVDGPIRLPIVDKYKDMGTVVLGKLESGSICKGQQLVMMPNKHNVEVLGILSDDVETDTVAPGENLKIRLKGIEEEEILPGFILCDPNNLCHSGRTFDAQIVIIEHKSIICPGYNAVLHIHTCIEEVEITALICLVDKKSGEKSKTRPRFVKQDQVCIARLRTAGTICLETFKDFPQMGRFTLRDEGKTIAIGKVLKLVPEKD
T1 sequence (Q96SW2 whole entry, species assumed): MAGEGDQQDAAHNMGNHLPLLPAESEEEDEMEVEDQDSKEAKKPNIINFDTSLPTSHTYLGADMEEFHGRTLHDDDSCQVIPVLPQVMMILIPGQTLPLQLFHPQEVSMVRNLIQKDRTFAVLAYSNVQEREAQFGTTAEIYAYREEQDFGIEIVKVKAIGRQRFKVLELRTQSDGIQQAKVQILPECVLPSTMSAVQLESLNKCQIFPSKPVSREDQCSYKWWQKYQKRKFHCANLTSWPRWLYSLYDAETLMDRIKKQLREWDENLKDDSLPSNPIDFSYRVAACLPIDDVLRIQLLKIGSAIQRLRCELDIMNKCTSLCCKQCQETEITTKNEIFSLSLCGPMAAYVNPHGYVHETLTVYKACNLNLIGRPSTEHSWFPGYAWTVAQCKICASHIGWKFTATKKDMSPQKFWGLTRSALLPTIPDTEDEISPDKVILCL
T1 sequence (Q16531 whole entry partner, species assumed): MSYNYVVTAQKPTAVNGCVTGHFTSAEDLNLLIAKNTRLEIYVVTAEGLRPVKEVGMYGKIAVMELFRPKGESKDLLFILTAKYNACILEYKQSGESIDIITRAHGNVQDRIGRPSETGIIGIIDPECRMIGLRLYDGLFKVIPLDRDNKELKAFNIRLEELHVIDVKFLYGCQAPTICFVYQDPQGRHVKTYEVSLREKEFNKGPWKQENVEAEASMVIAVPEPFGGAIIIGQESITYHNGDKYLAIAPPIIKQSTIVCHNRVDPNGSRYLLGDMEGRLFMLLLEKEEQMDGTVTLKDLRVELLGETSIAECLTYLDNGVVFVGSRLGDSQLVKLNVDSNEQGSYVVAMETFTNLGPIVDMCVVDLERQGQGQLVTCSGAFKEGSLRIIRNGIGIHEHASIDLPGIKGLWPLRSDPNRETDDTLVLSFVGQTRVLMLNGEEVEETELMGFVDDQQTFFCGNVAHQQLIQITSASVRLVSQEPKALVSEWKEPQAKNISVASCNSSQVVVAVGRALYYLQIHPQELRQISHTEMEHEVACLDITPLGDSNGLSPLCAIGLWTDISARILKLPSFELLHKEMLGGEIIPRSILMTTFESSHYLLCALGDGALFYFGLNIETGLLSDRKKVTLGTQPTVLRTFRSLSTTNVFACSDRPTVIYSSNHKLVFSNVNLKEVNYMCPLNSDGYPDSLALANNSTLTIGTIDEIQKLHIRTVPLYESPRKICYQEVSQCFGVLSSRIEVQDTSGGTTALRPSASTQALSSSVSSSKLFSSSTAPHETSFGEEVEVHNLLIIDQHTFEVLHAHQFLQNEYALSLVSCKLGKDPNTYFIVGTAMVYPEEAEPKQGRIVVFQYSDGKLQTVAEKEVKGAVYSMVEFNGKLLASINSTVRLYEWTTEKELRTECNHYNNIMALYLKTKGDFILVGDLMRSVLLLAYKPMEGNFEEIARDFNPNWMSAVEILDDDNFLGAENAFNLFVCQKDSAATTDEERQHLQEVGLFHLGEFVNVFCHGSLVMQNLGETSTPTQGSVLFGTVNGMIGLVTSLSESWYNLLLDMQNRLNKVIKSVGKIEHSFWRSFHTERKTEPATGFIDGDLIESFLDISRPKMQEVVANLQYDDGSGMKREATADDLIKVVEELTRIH
T3 sequence (Q13422 whole entry, species assumed): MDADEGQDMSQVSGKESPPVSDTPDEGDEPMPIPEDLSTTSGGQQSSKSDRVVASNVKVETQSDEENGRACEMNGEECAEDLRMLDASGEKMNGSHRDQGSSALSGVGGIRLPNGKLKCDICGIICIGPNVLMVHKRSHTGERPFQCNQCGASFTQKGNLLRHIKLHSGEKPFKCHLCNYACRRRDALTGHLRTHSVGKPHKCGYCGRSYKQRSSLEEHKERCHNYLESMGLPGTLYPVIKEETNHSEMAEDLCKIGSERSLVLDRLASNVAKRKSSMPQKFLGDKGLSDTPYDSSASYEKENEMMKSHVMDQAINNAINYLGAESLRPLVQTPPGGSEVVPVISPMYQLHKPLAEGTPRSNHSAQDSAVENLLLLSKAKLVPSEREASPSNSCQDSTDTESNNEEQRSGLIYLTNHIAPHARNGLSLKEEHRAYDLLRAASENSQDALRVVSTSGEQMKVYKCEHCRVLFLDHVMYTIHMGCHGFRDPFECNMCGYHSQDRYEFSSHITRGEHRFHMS
T3 sequence (Q96SW2 whole entry, species assumed): as the sequence (Q96SW2 whole entry, species assumed) above
T3 sequence (Q16531 whole entry partner, species assumed): as the sequence (Q16531 whole entry partner, species assumed) above
T2 sequence (Q9UJQ4 whole entry, species assumed): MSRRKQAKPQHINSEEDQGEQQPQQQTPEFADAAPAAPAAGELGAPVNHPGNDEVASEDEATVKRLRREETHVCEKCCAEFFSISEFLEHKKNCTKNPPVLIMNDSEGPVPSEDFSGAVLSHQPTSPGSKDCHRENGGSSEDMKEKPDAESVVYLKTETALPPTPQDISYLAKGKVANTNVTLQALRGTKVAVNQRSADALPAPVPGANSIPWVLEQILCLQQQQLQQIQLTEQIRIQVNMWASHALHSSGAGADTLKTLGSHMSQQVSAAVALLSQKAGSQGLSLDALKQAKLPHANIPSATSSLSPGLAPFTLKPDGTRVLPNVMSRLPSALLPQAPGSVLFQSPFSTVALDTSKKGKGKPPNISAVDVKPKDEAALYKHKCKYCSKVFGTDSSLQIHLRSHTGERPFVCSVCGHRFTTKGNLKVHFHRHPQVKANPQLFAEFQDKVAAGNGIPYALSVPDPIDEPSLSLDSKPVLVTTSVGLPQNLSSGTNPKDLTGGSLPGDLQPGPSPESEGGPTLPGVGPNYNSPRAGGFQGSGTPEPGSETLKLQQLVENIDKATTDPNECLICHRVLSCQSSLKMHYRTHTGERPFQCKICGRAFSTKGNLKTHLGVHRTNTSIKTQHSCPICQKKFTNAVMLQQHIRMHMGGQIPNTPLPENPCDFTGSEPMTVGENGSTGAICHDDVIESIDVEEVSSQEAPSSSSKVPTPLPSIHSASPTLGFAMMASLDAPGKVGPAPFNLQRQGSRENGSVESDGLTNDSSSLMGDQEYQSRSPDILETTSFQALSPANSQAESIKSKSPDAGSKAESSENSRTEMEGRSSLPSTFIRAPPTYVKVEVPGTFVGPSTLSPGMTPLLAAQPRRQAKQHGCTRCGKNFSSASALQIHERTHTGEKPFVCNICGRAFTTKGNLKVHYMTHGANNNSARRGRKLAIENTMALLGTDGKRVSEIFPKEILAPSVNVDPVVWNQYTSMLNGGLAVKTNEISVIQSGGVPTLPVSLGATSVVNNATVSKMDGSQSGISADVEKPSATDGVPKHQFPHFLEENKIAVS
T2 sequence (Q96SW2 whole entry, species assumed): as the sequence (Q96SW2 whole entry, species assumed) above
T2 sequence (Q16531 whole entry partner, species assumed): as the sequence (Q16531 whole entry partner, species assumed) above

GSPT1 % protein reduction at 10 μM, 24 h (GSPT1) [%] | DC50 (GSPT1) [nM] | SALL4 % protein Reduction at 10 μM, 24 h (SALL4) [%] | DC50 (IKZF1) [nM] | percent IKZF1 protein reduction at 10 µM (IKZF1) [%] | Compound
80 | 170 | 60 |  |  | O=C1CCN(c2cnc3ccc(C4CCN(Cc5ccccc5)CC4)cn23)C(=O)N1 [Compound I-10, 1-(6-(1-Benzylpiperidin-4-yl)imidazo[1,2-a]pyridin-3-yl)dihydropyrimidine-2,4(1H,3H)-dione]
80 | 170 |  |  |  | CC(C)(C)c1ccc(C(=O)N2CC=C(c3ccn4c(N5CCC(=O)NC5=O)cnc4c3)CC2)cc1 [Compound I-9, 1-(7-(1-(4-(tert-Butyl)benzoyl)-1,2,3,6-tetrahydropyridin-4-yl)imidazo[1,2-a]pyridin-3-yl)dihydropyrimidine-2,4(1H,3H)-dione]
 |  |  | > 20000 |  | O=C1CCN(c2coc3cc(C(=O)NCc4ccccc4)ccc23)C(=O)N1 [Compound I-12, N-benzyl-3-(2,4-dioxotetrahydropyrimidin-1(2H)-yl)benzofuran-6-carboxamide]
 |  |  | 46 | > 90 | CN(C)CC#Cc1ccc2c(N3CCC(=O)NC3=O)coc2c1 [Compound I-11, 1-(6-(3-(dimethylamino)prop-1-yn-1-yl)benzofuran-3-yl)dihydropyrimidine-2,4(1H,3H)-dione]
 |  |  | 60 | > 90 | C#Cc1ccc2c(N3CCC(=O)NC3=O)coc2c1 [Compound I-2, 1-(6-Ethynylbenzofuran-3-yl)dihydropyrimidine-2,4(1H,3H)-dione]
 |  |  |  | 40 | O=c1ccn(-c2cnc3cc(Br)ccn23)c(=O)[nH]1 [Compound I-18, 1-(7-Bromoimidazo[1,2-a]pyridin-3-yl)pyrimidine-2,4(1H,3H)-dione]
 |  |  | 16 | > 90 | Cc1ccc2occ(N3CCC(=O)NC3=O)c2c1 [Compound I-3, 1-(5-Methylbenzofuran-3-yl)dihydropyrimidine-2,4(1H,3H)-dione]
 |  |  | 630 | 80 | Cc1ccc(CCOc2ccc3c(N4CCC(=O)NC4=O)noc3c2)cc1 [Compound I-15, 1-(6-(4-Methylphenethoxy)benzo[d]isoxazol-3-yl)dihydropyrimidine-2,4(1H,3H)-dione]
 |  |  | 6 | > 90 | O=C1CCN(c2cnn3cc(Cl)ccc23)C(=O)N1 [Compound I-7, 1-(6-Chloropyrazolo[1,5-a]pyridin-3-yl)dihydropyrimidine-2,4(1H,3H)-dione]
 |  |  | 6 | > 90 | Cc1ccc2c(N3CCC(=O)NC3=O)noc2c1 [Compound I-13, 1-(6-Methylbenzo[d]isoxazol-3-yl)dihydropyrimidine-2,4(1H,3H)-dione]
 |  |  | > 20000 |  | O=c1ccn(-c2cnc3ccc(C4CCN(Cc5ccccc5)CC4)cc3c2)c(=O)[nH]1 [Compound I-16, 1-(6-(1-benzylpiperidin-4-yl)quinolin-3-yl)pyrimidine-2,4(1H,3H)-dione]
 |  |  | 25 | > 90 | O=C1CCN(c2noc3ccc(Cl)cc23)C(=O)N1 [Compound I-14, 1-(5-Chlorobenzo[d]isoxazol-3-yl)dihydropyrimidine-2,4(1H,3H)-dione]
 |  |  | 51 | 60 | O=C1CCN(c2coc3ccc(I)cc23)C(=O)N1 [Compound I-4, 1-(5-Iodobenzofuran-3-yl)dihydropyrimidine-2,4(1H,3H)-dione]
 |  |  | 57 | 75 | O=C1CCN(c2coc3ccccc23)C(=O)N1 [Compound I-1, 1-(Benzofuran-3-yl)dihydropyrimidine-2,4(1H,3H)-dione]
 |  | 60 | 130 | > 90 | O=C1CCN(c2coc3cc(I)ccc23)C(=O)N1 [Compound I-5, 1-(6-Iodobenzofuran-3-yl)dihydropyrimidine-2,4(1H,3H)-dione]

Compound | GSPT1 % protein reduction at 10 μM, 24 h (GSPT1) [%] | DC50 (GSPT1) [nM] | SALL4 % protein Reduction at 10 μM, 24 h (SALL4) [%] | DC50 (IKZF1) [nM] | percent IKZF1 protein reduction at 10 µM (IKZF1) [%]
O=C1CCN(c2coc3ccc(NC(=O)Oc4ccccc4)cc23)C(=O)N1 [Compound I-6, Phenyl (3-(2,4-dioxotetrahydropyrimidin-1(2H)-yl)benzofuran-5-yl)carbamate] |  |  |  | 120 | 75
O=C1CCN(c2cnc3cc(C4=CCN(Cc5ccccc5)CC4)ccn23)C(=O)N1 [Compound I-8, 1-(7-(1-Benzyl-1,2,3,6-tetrahydropyridin-4-yl)imidazo[1,2-a]pyridin-3-yl)dihydropyrimidine-2,4(1H,3H)-dione] |  |  |  | 41 | > 90
O=c1ccn(-c2cnc3cc(C4=CCN(Cc5ccccc5)CC4)ccn23)c(=O)[nH]1 [Compound I-17, 1-(7-(1-Benzyl-1,2,3,6-tetrahydropyridin-4-yl)imidazo[1,2-a]pyridin-3-yl)pyrimidine-2,4(1H,3H)-dione] |  |  |  | 430 | 80
